The text below walks through data of patent US10759783B2, “Biaryl inhibitors of Bruton'S tyrosine kinase” (BIOGEN MA INC., priority 2013, dated 2020).

What is called IC50 is the concentration that gives 50% inhibition.

Test [1] addresses T1, BTK enzyme (Homo sapiens, UniProt Q06187).
T1 construct: purchased Upstate 14-552
Description: In vitro BTK kinase assay: BTK-POLYGAT-LS assay. It counts as biochemical. Particulars: ATP 10 μM, read-out: IC50 (10uMATP). A digest of the protocol: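 Human BTK activity was measured with final 10 μM ATP and 100 nM polyGAT substrate in pH 7.5 Tris buffer with 10 mM MgCl2, DTT, Triton X-100 and casein.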

Test [2] has as its target BTK (phospho-BTK) in human whole blood (Homo sapiens, UniProt Q06187). Description: In vitro PD assay in human whole blood (pBTK assay).

Sequence of BTK (phospho-BTK) in human whole blood (Q06187 whole entry): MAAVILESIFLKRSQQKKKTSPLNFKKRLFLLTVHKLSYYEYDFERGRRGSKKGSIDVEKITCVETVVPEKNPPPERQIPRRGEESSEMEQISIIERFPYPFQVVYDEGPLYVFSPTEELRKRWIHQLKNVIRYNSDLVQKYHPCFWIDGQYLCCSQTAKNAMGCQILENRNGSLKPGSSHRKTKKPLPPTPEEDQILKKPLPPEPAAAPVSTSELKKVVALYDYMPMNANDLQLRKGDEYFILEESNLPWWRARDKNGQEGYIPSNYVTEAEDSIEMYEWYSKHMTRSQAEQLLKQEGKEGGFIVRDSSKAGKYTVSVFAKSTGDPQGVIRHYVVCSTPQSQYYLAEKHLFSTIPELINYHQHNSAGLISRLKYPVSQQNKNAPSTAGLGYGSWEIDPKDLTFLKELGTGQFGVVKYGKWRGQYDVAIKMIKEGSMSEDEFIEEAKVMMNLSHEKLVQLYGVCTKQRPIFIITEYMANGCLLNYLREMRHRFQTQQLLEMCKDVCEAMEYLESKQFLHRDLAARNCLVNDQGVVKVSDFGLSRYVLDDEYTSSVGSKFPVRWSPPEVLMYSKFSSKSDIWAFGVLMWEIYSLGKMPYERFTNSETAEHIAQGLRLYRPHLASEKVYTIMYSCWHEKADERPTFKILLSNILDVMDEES
T1 sequence (Q06187 whole entry): as above

Consider `CC(C)n1cc(Nc2nccc(-c3ccc(CNC(=O)N4CCC(C(C)(C)C)C4)c(C(F)(F)F)c3)n2)cn1` (centres unmarked) [Example I-293, 3-tert-butyl-N-[[4-[2-[(1-isopropylpyrazol-4-yl)amino]pyrimidin-4-yl]-2-(trifluoromethyl)phenyl]methyl]pyrrolidine-1-carboxamide], for which the IC50 in test [1] is < 10 nM; in test [2] it was < 500 nM.

On to `Cc1cc(-c2cc(Nc3ccn(C)n3)ncn2)ccc1CNC(=O)c1cnc(C(C)(C)C)s1` [Example I-66, 2-(tert-butyl)-N-(2-methyl-4-(6-((1-methyl-1H-pyrazol-3-yl)amino)pyrimidin-4-yl)benzyl)thiazole-5-carboxamide], for which the IC50 in test [1] is < 10 nM; in test [2], 500 to 1500 nM.

Take `Cc1cc(-c2ccnc(Nc3cnn(CCO)c3)n2)ccc1CNC(=O)c1cc2c(s1)CCOC2` [Example I-120, N-(4-(2-((1-(2-hydroxyethyl)-1H-pyrazol-4-yl)amino)pyrimidin-4-yl)-2-methylbenzyl)-6,7-dihydro-4H-thieno[3,2-c]pyran-2-carboxamide]: the IC50 in test [1] is < 10 nM; in test [2] it was 500 to 1500 nM.

For `Cc1cc(-c2ccnc(Nc3cnn(C)c3)n2)ccc1CNC(=O)N1CCC(C(F)(F)F)CC1` [Example I-19, N-(2-methyl-4-(2-((1-methyl-1H-pyrazol-4-yl)amino)pyrimidin-4-yl)benzyl)-4-(trifluoromethyl)piperidine-1-carboxamide], the IC50 is < 10 nM in test [1] and 500 to 1500 nM in test [2].

Regarding `Cc1cc(-c2cc(Nc3cc4c(cn3)CN(C)CC4)ncn2)ccc1CNC(=O)c1cnc(C(C)(C)C)s1` [Example I-269, 2-tert-butyl-N-[[2-methyl-4-[6-[(7-methyl-6,8-dihydro-5H-2,7-naphthyridin-3-yl)amino]pyrimidin-4-yl]phenyl]methyl]thiazole-5-carboxamide], the IC50 in test [1] is < 10 nM; in test [2], < 500 nM.

As for `Cc1cc(-c2ccnc(Nc3cnn(C4CN(C)C4)c3)n2)ccc1CNC(=O)N1CC(OC(C)C)C1` [Example I-218, 3-isopropoxy-N-(2-methyl-4-(2-((1-(1-methylazetidin-3-yl)-1H-pyrazol-4-yl)amino)pyrimidin-4-yl)benzyl)azetidine-1-carboxamide], the IC50 in test [1] is < 10 nM; in test [2] it was < 500 nM.

In the case of `Cc1cc(-c2cc(Nc3cc4n(n3)CCN(C)C4)ncn2)ccc1CNC(=O)N1CCC(C(C)(C)C)C1` (centres unmarked) [Example I-275, 3-tert-butyl-N-[[2-methyl-4-[6-[(5-methyl-6,7-dihydro-4H-pyrazolo[1,5-a]pyrazin-2-yl)amino]pyrimidin-4-yl]phenyl]methyl]pyrrolidine-1-carboxamide], the IC50 is < 10 nM in test [1] and < 500 nM in test [2].

Regarding `Cn1cc(Nc2nccc(-c3ccc4c(c3)CCCC4NC(=O)N3CC(OC(C)(C)C)C3)n2)cn1` (centres unmarked) [Example I-359, 3-tert-butoxy-N-[6-[2-[(1-methylpyrazol-4-yl)amino]pyrimidin-4-yl]tetralin-1-yl]azetidine-1-carboxamide], the IC50 in test [1] is < 10 nM; in test [2] it was < 500 nM.

Consider `Cc1cc(-c2ccnc(Nc3cnn([C@@H]4CCNC4)c3)n2)ccc1CNC(=O)c1cnc(C(C)(C)C)s1` [Example I-122, (R)-2-(tert-butyl)-N-(2-methyl-4-(2-((1-(pyrrolidin-3-yl)-1H-pyrazol-4-yl)amino)pyrimidin-4-yl)benzyl)thiazole-5-carboxamide], for which the IC50 in test [1] is < 10 nM; in test [2], < 500 nM.

With `Cc1cc(-c2ccnc(Nc3cnn(C)c3)n2)ccc1CNC(=O)c1cc2c(s1)CCCC2` [Example I-5, N-(2-methyl-4-(2-((1-methyl-1H-pyrazol-4-yl)amino)pyrimidin-4-yl)benzyl)-4,5,6,7-tetrahydrobenzo[b]thiophene-2-carboxamide], the IC50 in test [1] is < 10 nM; in test [2], 500 to 1500 nM.

In the case of `CCn1cc(Nc2nccc(-c3ccc(CNC(=O)c4cnc(C(C)(C)C)s4)c(C)c3)n2)cn1` [Example I-40, 2-(tert-butyl)-N-(4-(2-((1-ethyl-1H-pyrazol-4-yl)amino)pyrimidin-4-yl)-2-methylbenzyl)thiazole-5-carboxamide], the figures for the IC50 in test [1] and in test [2] were < 10 nM and < 500 nM, respectively.

For `Cc1cc(-c2ccnc(Nc3cnn(C4CCOCC4)c3)n2)ccc1CNC(=O)N1CC(OC(C)C)C1` [Example I-221, 3-isopropoxy-N-(2-methyl-4-(2-((1-(tetrahydro-2H-pyran-4-yl)-1H-pyrazol-4-yl)amino)pyrimidin-4-yl)benzyl)azetidine-1-carboxamide], the IC50 in test [1] is < 10 nM; in test [2], < 500 nM.

`Cc1cc(-c2cc(Nc3cc4n(n3)CCCN(CCO)C4)ncn2)ccc1CNC(=O)c1cnc(C(C)(C)C)s1` [Example I-285, 2-tert-butyl-N-[[4-[6-[[5-(2-hydroxyethyl)-4,6,7,8-tetrahydropyrazolo[1,5-a][1,4]diazepin-2-yl]amino]pyrimidin-4-yl]-2-methyl-phenyl]methyl]thiazole-5-carboxamide]: the IC50 in test [1] was < 10 nM; in test [2], < 500 nM.

Take `Cc1cc(-c2cc(Nc3cc4n(n3)CCN(C)C4C)ncn2)ccc1CNC(=O)c1cnc(C(C)(C)C)s1` (centres unmarked) [Example I-283, 2-tert-butyl-N-[[4-[6-[(4,5-dimethyl-6,7-dihydro-4H-pyrazolo[1,5-a]pyrazin-2-yl)amino]pyrimidin-4-yl]-2-methyl-phenyl]methyl]thiazole-5-carboxamide]: the values for the IC50 in test [1] and in test [2] were < 10 nM and < 500 nM, respectively.

With `Cc1cc(-c2ccnc(Nc3cnn(C4CN(C)C4)c3)n2)ccc1CNC(=O)N1CC(OC(C)(C)C)C1` [Example I-215, 3-(tert-butoxy)-N-(2-methyl-4-(2-((1-(1-methylazetidin-3-yl)-1H-pyrazol-4-yl)amino)pyrimidin-4-yl)benzyl) azetidine-1-carboxamide], the IC50 in test [1] was < 10 nM; in test [2], < 500 nM.

As to `Cc1cc(-c2cc(Nc3cc4n(n3)CC(=O)N(C)C4)ncn2)ccc1CNC(=O)N1CC(OC(C)(C)C)C1` [Example I-239, 3-(tert-butoxy)-N-(2-methyl-4-(6-((5-methyl-6-oxo-4,5,6,7-tetrahydropyrazolo-[1,5-a]pyrazin-2-yl)amino)pyrimidin-4-yl)benzyl) azetidine-1-carboxamide], the IC50 is < 10 nM in test [1] and < 500 nM in test [2].

Regarding `Cc1cc(-c2cc(Nc3ccn([C@@H]4CCOC4)n3)ncn2)ccc1CNC(=O)c1cnc(C(C)(C)C)s1` [Example I-357, 2-tert-butyl-N-[[2-methyl-4-[6-[[1-[(3R)-tetrahydrofuran-3-yl]pyrazol-3-yl]amino]pyrimidin-4-yl]phenyl]methyl]thiazole-5-carboxamide], the IC50 in test [1] is < 10 nM; in test [2], < 500 nM.

In the case of `Cc1c(Nc2nccc(-c3ccc4c(c3)CCCCC4NC(=O)N3CC(OC(C)(C)C)C3)n2)cnn1C` (centres unmarked) [Example I-347, 3-tert-butoxy-N-[2-[2-[(1,5-dimethylpyrazol-4-yl)amino]pyrimidin-4-yl]-6,7,8,9-tetrahydro-5H-benzo[7]annulen-5-yl]azetidine-1-carboxamide], the values for the IC50 in test [1] and in test [2] were < 10 nM and < 500 nM, respectively.

As for `Cc1cc(-c2cc(Nc3cc4n(n3)CCN(C)C4)ncn2)ccc1CNC(=O)N1CC(OC(C)(C)C)C1` [Example I-256, 3-tert-butoxy-N-[[2-methyl-4-[6-[(5-methyl-6,7-dihydro-4H-pyrazolo[1,5-a]pyrazin-2-yl)amino]pyrimidin-4-yl]phenyl]methyl]azetidine-1-carboxamide], the figures for the IC50 in test [1] and in test [2] were < 10 nM and < 500 nM, respectively.

In the case of `Cn1cc(Nc2nccc(-c3ccc4c(c3)CCCC4NC(=O)c3cnc(C(C)(C)C)s3)n2)cn1` (centres unmarked) [Example I-91, 2-(tert-butyl)-N-(6-(2-((1-methyl-1H-pyrazol-4-yl)amino)pyrimidin-4-yl)-1,2,3,4-tetrahydronaphthalen-1-yl)thiazole-5-carboxamide], the figures for the IC50 in test [1] and in test [2] were < 10 nM and 1500 to 10000 nM, respectively.

On to `CC(C)OC1CN(C(=O)NC2CCCCc3cc(-c4ccnc(Nc5cnn([C@H]6CCOC6)c5)n4)ccc32)C1` (stereo partly drawn) [Example I-338, 3-isopropoxy-N-[2-[2-[[1-[(3S)-tetrahydrofuran-3-yl]pyrazol-4-yl]amino]pyrimidin-4-yl]-6,7,8,9-tetrahydro-5H-benzo[7]annulen-5-yl]azetidine-1-carboxamide], for which the IC50 in test [1] was < 10 nM; in test [2] it was < 500 nM.

`Cc1cc(-c2ccnc(Nc3cnn(C)c3)n2)ccc1CNC(=O)c1cnc(C(C)(C)C)s1` [Example I-1, 2-(tert-butyl)-N-(2-methyl-4-(2-((1-methyl-1H-pyrazol-4-yl)amino)pyrimidin-4-yl)benzyl)thiazole-5-carboxamide]: the IC50 was < 10 nM in test [1] and < 500 nM in test [2].

With `Cc1cc(-c2ccnc(Nc3cnn(C)c3)n2)ccc1CNC(=O)c1nc2c(s1)CCC2` [Example I-10, N-(2-methyl-4-(2-((1-methyl-1H-pyrazol-4-yl)amino)pyrimidin-4-yl)benzyl)-5,6-dihydro-4H-cyclopenta[d]thiazole-2-carboxamide], the figures for the IC50 in test [1] and in test [2] were < 10 nM and < 500 nM, respectively.

For `Cc1cc(-c2cc(Nc3cc4n(n3)CCOC4)ncn2)ccc1CNC(=O)N1CC(OC(C)C)C1` [Example I-277, N-[[4-[6-(6,7-dihydro-4H-pyrazolo[5,1-c][1,4]oxazin-2-ylamino)pyrimidin-4-yl]-2-methyl-phenyl]methyl]-3-isopropoxy-azetidine-1-carboxamide], the IC50 is < 10 nM in test [1] and < 500 nM in test [2].

With `CCOC1CN(C(=O)NC2CCCCc3cc(-c4ccnc(Nc5cnn(C)c5)n4)ccc32)C1` (centres unmarked) [Example I-331, 3-ethoxy-N-[2-[2-[(1-methylpyrazol-4-yl)amino]pyrimidin-4-yl]-6,7,8,9-tetrahydro-5H-benzo[7]annulen-5-yl]azetidine-1-carboxamide], the IC50 in test [1] was < 10 nM; in test [2], < 500 nM.
